Target: SMARCA4 (Homo sapiens, UniProt P51532)
Experiment: TR-FRET ligand displacement assay with recombinant bromodomain and BET ligand
Format: binding
Conditions: read-out: % inhibition at 10 μM

SMARCA4, sequence (P51532 1453-1564 limits assumed): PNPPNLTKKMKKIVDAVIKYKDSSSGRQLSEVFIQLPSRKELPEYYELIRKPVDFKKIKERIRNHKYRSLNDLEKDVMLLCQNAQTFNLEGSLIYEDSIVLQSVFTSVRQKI

In the case of `O=C(/C=C/N1C[C@H]2C[C@@H]1CN2c1ccccn1)c1ccccc1O` [PFI-3], the inhibition at 10 µM is reported as 95%.

From PMC6432638 (Science signaling, 2018)
